Assays:
[1] = target: T1, rat liver microsomal 5α-reductase (Rattus norvegicus, UniProt P24008); test: 5α-reductase assay using rat liver microsomes (testosterone metabolism, HPLC and TLC); assay type: biochemical; details: for inhibition of 5α-reductase activity: at 10 and 100 μmol/L; for Inhibitory activity on 5α-reductase (% of control) / IC50: testosterone 3.5 μmol/L, 30 min, rat liver microsomes 40 μg/mL, HPLC; for Inhibitory activity on 5α-reductase (% of control): mean ± SEM, N = 3; for effect on 5α-reductase activity: examined at 0.1, 1, 10, and 100 μmol/L
T1 construct: The reaction was started with the addition of liver microsomes (20 μg protein); from tissue; host or cells: liver microsomes of male Sprague–Dawley rats
T1 sequence (P24008 1-259): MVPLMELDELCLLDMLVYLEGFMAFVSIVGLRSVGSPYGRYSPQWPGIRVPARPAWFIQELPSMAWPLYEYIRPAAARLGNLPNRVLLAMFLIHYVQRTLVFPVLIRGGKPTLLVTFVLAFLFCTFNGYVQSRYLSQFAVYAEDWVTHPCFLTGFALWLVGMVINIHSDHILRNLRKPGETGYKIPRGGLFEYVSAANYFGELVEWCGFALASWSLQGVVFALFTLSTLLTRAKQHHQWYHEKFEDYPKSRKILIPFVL
Experimental: Rat liver microsomes were prepared by the method of Lee et al.. Male Sprague–Dawley rats (body weight, 300 to 320 g; Clea Japan, Tokyo, Japan) were fasted overnight to decrease the concentration of liver glycogen and then sacrificed. The liver was excised and washed in ice-cold homogenizing buffer containing 0.32 mol/L sucrose, 1 mmol/L dithiothreitol (Wako Pure Chemical Industries), and 20 mmol/L potassium phosphate, pH 6.5. The following procedures were all carried out at 4°C. The tissue was minced with a pair of scissors and then homogenized in homogenizing buffer using a Potter-Elvehjem grinder. The homogenate was then centrifuged at 10 000 g for 10 min. The resulting pellet was washed with two pellet volumes of homogenizing buffer and centrifuged again. The supernatants from the two centrifugations were combined and further centrifuged at 105 000 g for 1 h. The resulting pellet (microsomes) was suspended in homogenizing buffer and centrifuged again. The microsomes were resuspended in homogenizing buffer. The microsome suspension was divided into small aliquots and stored at −80°C. The microsomes were diluted with 40 mmol/L potassium phosphate, pH 6.5, immediately before use. Unlike human liver, rat liver microsomes have the 5α-R1 but not the 5α-R2 isoform.
Briefly, the reaction solution was preincubated with or without a test sample in 1 mmol/L dithiothreitol, 40 mmol/L potassium phosphate, pH 6.5, 100 μmol/L NADPH (Oriental Yeast, Tokyo, Japan), and 3.5 μmol/L testosterone (Wako Pure Chemical Industries) in a final volume of 0.5 mL for 20 min at room temperature. The reaction was started with the addition of liver microsomes (20 μg protein). After incubation at 37°C for 30 min, the reaction solution was extracted with 2 mL ethyl acetate. The ethyl acetate phase (upper phase) was transferred to a tube and evaporated using a centrifugal concentrator (Tomy Seiko, Tokyo, Japan). Testosterone and the metabolites were measured by two chromatography methods, HPLC (Shimadzu, Kyoto, Japan) and TLC.
The residue was dissolved in acetonitrile and analyzed using the HPLC system. The reverse-phase HPLC analysis was performed on a C18 column (3.0 × 150 mm, GL Science, Japan) at a column oven temperature of 50°C and UV detection of 240 nm. The isocratic mobile phase of acetonitrile/water (50 : 50, v/v) was flowed at 0.4 mL/min through the column.
To detect the steroids by TLC, the residue containing steroids was taken up in ethanol and chromatographed on a TLC plate (Silica gel 60 F254, Merck, Darmstadt, Germany), using ethyl acetate-hexane (1 : 1, v/v) as the developing solvent system at room temperature. Testosterone, (Tokyo Chemical Industry Co., Tokyo, Japan) and 5α-androstane-3α,17β-diol (Sigma-Aldrich) were applied to TLC as androgen standards. The plate was exposed to 10% sulfuric acid using an atomizer and then heated on a hot plate. The fluorescent signals were visualized by irradiation of UV light at 302 nm using a ChemiDoc XRS Plus (BIO-RAD, Hercules, CA).

[2] = test system: primary hamster sebocytes (Ha-SE); test: cell cytotoxicity (XTT) in undifferentiated hamster sebocytes; details: 0.2% triton X-100, 24 h in the presence of EGF
Experimental: Four Figures and Two Tables
Hamster-derived sebaceous gland cells (Ha-SE) were precultured until confluent in the presence of 10 ng/mL epidermal growth factor (EGF), and further cultured with 10, 30 […]
vehicle in the presence of EGF. Twenty four hours later, cell cytotoxicity was measured […]
Fig. S2. Bioconversion of exogenous dihydrotestosterone to 5α-androstane-3,17-diol by rat liver microsomal enzymes […]
min in the presence or absence of rat liver microsomes (40 μg/mL) and the co-factors.
The metabolites were extracted with ethyl acetate after incubation, and analyzed by TLC. All androgen standards were applied at 0.1 μg/μL/spot. T.: testosterone, DHT: dihydrotestosterone, A.diol: 5α-androstane-3α,17β-diol

Row | Compound | inhibition of 5α-reductase activity [1] | Inhibitory activity on 5α-reductase (% of control) ([1]; test sample 0.1 μmol/L) | Inhibitory activity on 5α-reductase (% of control) ([1]; test sample 1 μmol/L) | Inhibitory activity on 5α-reductase (% of control) ([1]; test sample 10 μmol/L) | Inhibitory activity on 5α-reductase (% of control) ([1]; test sample 100 μmol/L) | IC50 [1] | effect on 5α-reductase activity [1] | cytotoxicity [2]
1 | O=C(O[C@@H]1Cc2c(O)cc(O)cc2O[C@@H]1c1ccc(O)c(O)c1)c1cc(O)c(O)c(O)c1 [(−)-Epicatechin gallate, (−)-epicatechin gallate] | more than 50% | 4.6 ± 0.2 % of control | 4.9 ± 0.2 % of control | 5.9 ± 0.3 % of control | 69.4 ± 1.2 % of control | 10 to 100 µM | – | –
2 | Oc1cc(O)c2c(c1)O[C@H](c1cc(O)c(O)c(O)c1)[C@@H](O)C2 [(+)-gallocatechin, (+)-Gallocatechin] | – | – | – | – | – | – | did not show any effect | –
3 | O=C(O[C@@H]1COC(=O)c2cc(O)c(O)c(O)c2-c2c(cc(O)c(O)c2O)C(=O)O[C@H]1[C@@H]1OC(=O)c2cc(O)c(O)c(O)c2-c2c(O)c(O)c(O)c3c2C(=O)O[C@H]1[C@@H]3O)c1cc(O)c(O)c(O)c1 [Casuarinin, casuarinin] | more than 50% | 6.4 ± 1.4 % of control | 10.8 ± 0.7 % of control | 59.0 ± 2.0 % of control | 110.1 ± 0.5 % of control | 10.5 µM | – | –
4 | O=C(OC[C@H]1OC(O)[C@@](O)(COC(=O)c2cc(O)c(O)c(O)c2)[C@@H]1O)c1cc(O)c(O)c(O)c1 (stereo partly drawn) [Hamamelitannin, 2′,5-di-O-galloyl hamamelose] | – | – | – | – | – | – | did not show any effect | –
5 | stenophyllanin C | more than 50% | 5.6 ± 0.6 % of control | 4.6 ± 0.5 % of control | 63.1 ± 0.4 % of control | 102.3 ± 2.2 % of control | 7.2 µM | – | –
6 | O=C(OC[C@H]1OC(OC(=O)c2cc(O)c(O)c(O)c2)[C@H](OC(=O)c2cc(O)c(O)c(O)c2)[C@@H](OC(=O)c2cc(O)c(O)c(O)c2)[C@@H]1O)c1cc(O)c(O)c(O)c1 (stereo partly drawn) [Tetragalloyl glucose, 1,2,3,6-tetra-O-galloyl glucose] | more than 50% | 3.3 ± 0.5 % of control | 18.7 ± 0.4 % of control | 63.2 ± 3.0 % of control | 102.8 ± 1.2 % of control | 8.1 µM | – | –
7 | O=C(O[C@@H]1O[C@@H]2COC(=O)c3cc(O)c(O)c(O)c3-c3c(cc(O)c(O)c3O)C(=O)O[C@H]2[C@H](OC(=O)c2cc(O)c(O)c(O)c2)[C@H]1OC(=O)c1cc(O)c(O)c(O)c1)c1cc(O)c(O)c(O)c1 [Eugeniin, eugeniin] | more than 50% | 4.2 ± 1.0 % of control | 13.9 ± 0.5 % of control | 62.5 ± 0.6 % of control | 114.6 ± 0.6 % of control | 10.9 µM | – | –
8 | Oc1cc(O)c2c(c1)O[C@H](c1ccc(O)c(O)c1)[C@@H](O)C2 [(+)-catechin] | – | – | – | – | – | – | did not show any effect | –
9 | O=C(O[C@H]1[C@@H]2OC(=O)c3cc(O)c(O)c(O)c3-c3c(cc(O)c(O)c3O)C(=O)OC[C@H]2OC(O)[C@@H]1OC(=O)c1cc(O)c(O)c(O)c1)c1cc(O)c(O)c(O)c1 (stereo partly drawn) [1-Desgalloyl eugeniin, 1-desgalloyl eugeniin] | more than 50% | 4.6 ± 0.2 % of control | 9.2 ± 1.6 % of control | 52.5 ± 2.4 % of control | 107.9 ± 0.9 % of control | 12.6 µM | – | –
10 | COC(=O)c1cc(O)c(O)c(O)c1 [methyl gallate] | – | – | – | – | – | – | did not show any effect | –
11 | O=C(O[C@@H]1Cc2c(O)cc(O)cc2O[C@@H]1c1cc(O)c(O)c(O)c1)c1cc(O)c(O)c(O)c1 [(−)-Epigallocatechin gallate, (−)-epigallocatechin gallate] | more than 50% | 3.7 ± 0.1 % of control | 4.4 ± 0.4 % of control | 5.3 ± 0.3 % of control | 58.6 ± 2.7 % of control | 10 to 100 µM | – | –
12 | triton X-100 [reference compound] | – | – | – | – | – | – | – | significant cytotoxicity
13 | O=C(O)c1cc(O)c(O)c(O)c1 [gallic acid, Gallic acid] | – | – | – | – | – | – | did not show any effect | –
14 | Oc1cc(O)c2c(c1)O[C@@H](c1cc(O)c(O)c(O)c1)[C@H](O)C2 [(−)-gallocatechin] | – | – | – | – | – | – | did not show any effect | –
15 | O=C1OC[C@H]2OC(=O)c3cc(O)c(O)c(O)c3-c3c(O)c(O)c(O)c4c3C(=O)O[C@H]([C@H]3OC(=O)c5c-4c(O)c(O)c(O)c5[C@H]3O)[C@@H]2OC(=O)c2cc(O)c(O)c(O)c2-c2c1cc(O)c(O)c2O [Castalagin, castalagin] | more than 50% | 4.9 ± 0.5 % of control | 6.3 ± 1.2 % of control | 70.7 ± 3.2 % of control | 113.3 ± 7.6 % of control | 8 µM | – | –
16 | O=C1c2c(O)cc(O)cc2O[C@H](c2ccc(O)c(O)c2)[C@H]1O [(+)-taxifolin] | – | – | – | – | – | – | did not show any effect | –
17 | COc1cc2ccc(=O)oc2c(O[C@@H]2O[C@H](CO)[C@@H](O)[C@H](O)[C@H]2O)c1O [fraxin] | – | – | – | – | – | – | did not show any effect | –

Source: paper PMC4325551, “Inhibition of Rat 5α-Reductase Activity and Testosterone-Induced Sebum Synthesis in Hamster Sebocytes by an Extract of Quercus acutissima Cortex” (Evidence-based Complementary and Alternative Medicine : eCAM, 2015)
